Data from the Deep4Chem optical property database.

Test: photoluminescence quantum yield (fraction); solvent given as SMILES

Which photoluminescence quantum yield (in C1CCOC1) does the source give for `CCCCCCCCC1(CCCCCCCC)c2cc(C=O)ccc2-c2ccc(/C=C/c3ccc(N(c4ccccc4)c4ccccc4)cc3)cc21` here?
The photoluminescence quantum yield was 0.94.

And the photoluminescence quantum yield (in C1COCCO1)?
The photoluminescence quantum yield was 0.67.

And the photoluminescence quantum yield (in CC#N)?
Its photoluminescence quantum yield is 0.24.

And the photoluminescence quantum yield (in CC(C)=O)?
The photoluminescence quantum yield was 0.33.

And the photoluminescence quantum yield (in CCCCCC)?
The photoluminescence quantum yield was 0.6.

And the photoluminescence quantum yield (in CCOC(C)=O)?
The photoluminescence quantum yield was 0.6.

And the photoluminescence quantum yield (in CN(C)C=O)?
Its photoluminescence quantum yield is 0.12.

And the photoluminescence quantum yield (in CS(C)=O)?
Its photoluminescence quantum yield is 0.2.

And the photoluminescence quantum yield (in Cc1ccccc1)?
The photoluminescence quantum yield was 0.58.

And the photoluminescence quantum yield (in ClC(Cl)Cl)?
The photoluminescence quantum yield was 0.53.

And the photoluminescence quantum yield (in ClCCl)?
Its photoluminescence quantum yield is 0.7.

Which photoluminescence quantum yield (in ClCCl) does the source give for `COc1ccc(CCNC(=O)c2sc(-c3ccc(-c4cc(-c5ccc(C(C)(C)C)cc5)c(C(=O)NCCc5ccc(OC)c(OC)c5)s4)s3)cc2-c2ccc(C(C)(C)C)cc2)cc1OC` here?
The photoluminescence quantum yield was 0.27.

With `CCCCCCN1C(=O)c2cccc3c(-c4ccc(OC)s4)ccc(c23)C1=O` as the compound, how does the photoluminescence quantum yield (in ClC(Cl)Cl) read?
Its photoluminescence quantum yield is 0.65.

Which photoluminescence quantum yield (in CS(C)=O) does the source give for `N#Cc1c(/C=C/c2ccc(N(c3ccccc3)c3ccccc3)cc2)cc(-c2cccs2)cc1N1CCCCC1` here?
The photoluminescence quantum yield was 0.53.

For `Cn1nc(-c2ccccc2)c2nc3cc(F)ccc3nc21`, which photoluminescence quantum yield (in C1CCCCC1) is on record?
The photoluminescence quantum yield was 0.61.

And the photoluminescence quantum yield (in C1CCOC1)?
Its photoluminescence quantum yield is 0.38.

And the photoluminescence quantum yield (in CC#N)?
The photoluminescence quantum yield was 0.11.

Which photoluminescence quantum yield (in c1ccccc1) does the source give for `O=c1oc2ccc3ccc(O)cc3c2nc1-c1ccccc1` here?
Its photoluminescence quantum yield is 0.606.

With `CCCCCCCCC1(CCCCCCCC)c2ccccc2-c2ccc(-c3nnc(-c4cccc(-n5c6ccc(C(C)(C)C)cc6c6cc(C(C)(C)C)ccc65)c4)o3)cc21` as the compound, how does the photoluminescence quantum yield (in Cc1ccccc1) read?
Its photoluminescence quantum yield is 0.13.

Which photoluminescence quantum yield (in CC#N) does the source give for `Brc1ccc(-c2pc3ccccc3s2)cc1` (stereo unspecified) here?
Its photoluminescence quantum yield is 0.032.

For `COCCC1=Cc2nc1ccc1[nH]c(cc1CCOC)c1nc(c(N)cc3[nH]c2cc3CCOC)C(CCOC)=C1`, which photoluminescence quantum yield (in Cc1ccccc1) is on record?
The photoluminescence quantum yield was 0.04.

Which photoluminescence quantum yield (in ClCCl) does the source give for `COc1ccc(C#Cc2c3cc4ccccc4cc3c(C#C[Si](C(C)C)(C(C)C)C(C)C)c3cc4ccccc4cc23)cc1` here?
Its photoluminescence quantum yield is 0.05.

With `CC1=CC(C)=[N+]2C1=Cc1cccn1[B-]2(F)F` as the compound, how does the photoluminescence quantum yield (in CCCCCC) read?
Its photoluminescence quantum yield is 0.93.

What about the photoluminescence quantum yield (in CO) of the same compound?
Its photoluminescence quantum yield is 0.99.

What about the photoluminescence quantum yield (in ClCCl) of the same compound?
Its photoluminescence quantum yield is 0.87.

For `COC(=O)c1cc(=O)n(Cc2ccccc2)c2cc(-c3ccc(N(C)C)cc3)sc12`, which photoluminescence quantum yield (in CC#N) is on record?
The photoluminescence quantum yield was 0.05.

What about the photoluminescence quantum yield (in ClCCl) of the same compound?
Its photoluminescence quantum yield is 0.98.

For `CCCC1=Cc2nc1ccc1[nH]c(cc1CCC)c1nc(c(OC(C)=O)cc3[nH]c2cc3CCC)C(CCC)=C1`, which photoluminescence quantum yield (in Cc1ccccc1) is on record?
Its photoluminescence quantum yield is 0.28.

Which photoluminescence quantum yield (in CO) does the source give for `CCC1=C(C)C(=O)n2c1cc1c(C)c(CC)c(C)n1c2=O` here?
Its photoluminescence quantum yield is 0.93.

What about the photoluminescence quantum yield (in CS(C)=O) of the same compound?
Its photoluminescence quantum yield is 0.98.

What about the photoluminescence quantum yield (in ClC(Cl)Cl) of the same compound?
Its photoluminescence quantum yield is 1.

And the photoluminescence quantum yield (in c1ccccc1)?
Its photoluminescence quantum yield is 0.98.

With `CCC1=C(C)C(=O)n2c1cc1c(CCC(=O)O)c(C)c(C)n1c2=O` as the compound, how does the photoluminescence quantum yield (in CO) read?
The photoluminescence quantum yield was 0.95.

What about the photoluminescence quantum yield (in CS(C)=O) of the same compound?
Its photoluminescence quantum yield is 1.

And the photoluminescence quantum yield (in ClC(Cl)Cl)?
The photoluminescence quantum yield was 1.

And the photoluminescence quantum yield (in c1ccccc1)?
Its photoluminescence quantum yield is 0.84.

What does the source list for `CCCCCCCCCCCCC(CCCCCCCCCC)Cn1c2cc(C=C(C#N)C#N)c3cccc4c5cccc6c(C=C(C#N)C#N)cc1c(c65)c2c34` (stereo unspecified)?
photoluminescence quantum yield (in C1CCCCC1): 0.13; photoluminescence quantum yield (in CC#N): 0.151; photoluminescence quantum yield (in Cc1ccccc1): 0.138; photoluminescence quantum yield (in ClCCl): 0.115

With `CC1(C)C(/C=C/C2=C(Oc3ccc(CCN=C=S)cc3I)C(=C/C=C3/N(CCCS(=O)(=O)[O-])c4ccccc4C3(C)C)/CCC2)=[N+](CCCS(=O)(=O)[O-])c2ccccc21` as the compound, how does the photoluminescence quantum yield (in CO) read?
The photoluminescence quantum yield was 0.15.

With `Clc1nc(Nc2ccccc2)nc(Nc2ccc3c4cccc5cccc(c6cccc2c63)c54)n1` as the compound, how does the photoluminescence quantum yield (in C1COCCO1) read?
Its photoluminescence quantum yield is 0.53.

What about the photoluminescence quantum yield (in CC#N) of the same compound?
Its photoluminescence quantum yield is 0.45.

And the photoluminescence quantum yield (in CCCCOCCCC)?
The photoluminescence quantum yield was 0.49.

What about the photoluminescence quantum yield (in CCOC(C)=O) of the same compound?
Its photoluminescence quantum yield is 0.43.

Which photoluminescence quantum yield (in CC#N) does the source give for `O=C1/C(=C/C=C/c2cc3c4c(c2)CCCN4CCC3)CC/C1=C\C=C\c1cc2c3c(c1)CCCN3CCC2` here?
Its photoluminescence quantum yield is 0.037.

And the photoluminescence quantum yield (in CC(C)=O)?
The photoluminescence quantum yield was 0.092.

And the photoluminescence quantum yield (in CC(C)O)?
Its photoluminescence quantum yield is 0.07.

What about the photoluminescence quantum yield (in CCCCCC) of the same compound?
Its photoluminescence quantum yield is 0.13.

And the photoluminescence quantum yield (in CCCCO)?
Its photoluminescence quantum yield is 0.061.

What about the photoluminescence quantum yield (in CCCO) of the same compound?
The photoluminescence quantum yield was 0.042.

And the photoluminescence quantum yield (in CCO)?
The photoluminescence quantum yield was 0.026.

What about the photoluminescence quantum yield (in CCOC(C)=O) of the same compound?
The photoluminescence quantum yield was 0.1.

What about the photoluminescence quantum yield (in CCOCC) of the same compound?
Its photoluminescence quantum yield is 0.26.

And the photoluminescence quantum yield (in CN(C)C=O)?
Its photoluminescence quantum yield is 0.053.

And the photoluminescence quantum yield (in CO)?
The photoluminescence quantum yield was 0.026.

What about the photoluminescence quantum yield (in CS(C)=O) of the same compound?
The photoluminescence quantum yield was 0.062.

And the photoluminescence quantum yield (in Cc1ccccc1)?
The photoluminescence quantum yield was 0.3.

And the photoluminescence quantum yield (in ClCCl)?
The photoluminescence quantum yield was 0.15.

What about the photoluminescence quantum yield (in OCC(F)(F)F) of the same compound?
The photoluminescence quantum yield was 0.008.

And the photoluminescence quantum yield (in S=C=S)?
The photoluminescence quantum yield was 0.078.

What about the photoluminescence quantum yield (in c1ccccc1) of the same compound?
The photoluminescence quantum yield was 0.3.

And the photoluminescence quantum yield (in c1ccncc1)?
Its photoluminescence quantum yield is 0.17.

Which photoluminescence quantum yield (in CC#N) does the source give for `COC(=O)[C@@]12N=N[C@@](C(=O)OC)(C3C4CCC(C4)C31)[C@@H]1CC12` (stereo partly specified) here?
The photoluminescence quantum yield was 0.041.

Which photoluminescence quantum yield (in C1CCOC1) does the source give for `CSc1sc(C(N)=O)c2nnn(C)c(=O)c12` here?
The photoluminescence quantum yield was 0.5.

What about the photoluminescence quantum yield (in CC#N) of the same compound?
The photoluminescence quantum yield was 0.38.

And the photoluminescence quantum yield (in CCO)?
Its photoluminescence quantum yield is 0.22.

What about the photoluminescence quantum yield (in CN(C)C=O) of the same compound?
Its photoluminescence quantum yield is 0.27.

And the photoluminescence quantum yield (in CO)?
The photoluminescence quantum yield was 0.16.

And the photoluminescence quantum yield (in CS(C)=O)?
The photoluminescence quantum yield was 0.1.

For `CCCCCCc1cc2c3c(c1)c(=C1c4ccccc4Sc4ccccc41)c1cc(CCCCCC)cc4c1N3c1c(cc(CCCCCC)cc1c4=C1c3ccccc3Sc3ccccc31)c2=C1c2ccccc2Sc2ccccc21`, which photoluminescence quantum yield (in ClCCl) is on record?
Its photoluminescence quantum yield is 0.57.

Which photoluminescence quantum yield (in C1COCCO1) does the source give for `CCN(CC)c1ccc2c(C#N)c(/C=C(\C#N)c3nc4ccccc4o3)c(=O)oc2c1` here?
Its photoluminescence quantum yield is 0.0328.

And the photoluminescence quantum yield (in CC#N)?
Its photoluminescence quantum yield is 0.0658.

What about the photoluminescence quantum yield (in CCO) of the same compound?
The photoluminescence quantum yield was 0.0144.

What about the photoluminescence quantum yield (in CCOC(C)=O) of the same compound?
The photoluminescence quantum yield was 0.0434.

What about the photoluminescence quantum yield (in CO) of the same compound?
The photoluminescence quantum yield was 0.0121.

What about the photoluminescence quantum yield (in Cc1ccccc1) of the same compound?
The photoluminescence quantum yield was 0.101.

What about the photoluminescence quantum yield (in ClCCl) of the same compound?
Its photoluminescence quantum yield is 0.105.

Which photoluminescence quantum yield (in C1COCCO1) does the source give for `COC(=O)c1ccc(/C=C2\N=C(c3ccc([N+](=O)[O-])cc3)NC2=O)cc1` here?
Its photoluminescence quantum yield is 0.258.

For `N#CC(C#N)=Cc1ccc2c(c1)c1ccccc1n2-c1cc2ccccc2c2ccccc12`, which photoluminescence quantum yield (in CC#N) is on record?
Its photoluminescence quantum yield is 0.09.

And the photoluminescence quantum yield (in CCCCC)?
The photoluminescence quantum yield was 0.16.

What about the photoluminescence quantum yield (in Cc1ccccc1) of the same compound?
The photoluminescence quantum yield was 0.16.

And the photoluminescence quantum yield (in ClCCl)?
The photoluminescence quantum yield was 0.04.

Which photoluminescence quantum yield (in ClCCl) does the source give for `CC(C)(C)c1ccc(-c2cc(-c3ccc(-c4cc(-c5ccc(C(C)(C)C)cc5)c(C(=O)NCc5ccccc5)s4)s3)sc2C(=O)NCc2ccccc2)cc1` here?
The photoluminescence quantum yield was 0.33.

For `CC1=c2ccccc2=[N+]2C1=Cc1c3ccccc3c(-c3[nH]c4ccccc4c3C)n1[B-]2(F)F`, which photoluminescence quantum yield (in ClCCl) is on record?
The photoluminescence quantum yield was 0.08.

Which photoluminescence quantum yield (in CC(=O)N(C)C) does the source give for `C#Cc1ccc(/C2=c3\cc/c([nH]3)=C(\c3ccc(C#C)cc3)C3=N/C(=C(/c4cc(C(C)(C)C)cc(C(C)(C)C)c4)c4cc(c[nH]4)/C(c4cc(C(C)(C)C)cc(C(C)(C)C)c4)=C4/C=CC2=N4)C=C3)cc1` here?
Its photoluminescence quantum yield is 0.0578.

With `CC(=O)c1c2c(cc3cc(N(C)C)ccc13)CCC2` as the compound, how does the photoluminescence quantum yield (in C1CCCCC1) read?
The photoluminescence quantum yield was 0.08.

And the photoluminescence quantum yield (in C1CCOC1)?
The photoluminescence quantum yield was 0.34.

What about the photoluminescence quantum yield (in C1COCCO1) of the same compound?
Its photoluminescence quantum yield is 0.38.

And the photoluminescence quantum yield (in CC#N)?
Its photoluminescence quantum yield is 0.18.

And the photoluminescence quantum yield (in CCO)?
The photoluminescence quantum yield was 0.03.

What about the photoluminescence quantum yield (in CS(C)=O) of the same compound?
The photoluminescence quantum yield was 0.37.

What about the photoluminescence quantum yield (in Cc1ccccc1) of the same compound?
Its photoluminescence quantum yield is 0.25.

What about the photoluminescence quantum yield (in ClC(Cl)Cl) of the same compound?
Its photoluminescence quantum yield is 0.41.

And the photoluminescence quantum yield (in ClCCl)?
The photoluminescence quantum yield was 0.82.

Which photoluminescence quantum yield (in c1cc(-n2c3ccccc3c3ccccc32)cc(-n2c3ccccc3c3ccccc32)c1) does the source give for `N#Cc1cc(-n2c3ccccc3c3cccnc32)c(-n2c3ccccc3c3cccnc32)cc1C#N` here?
Its photoluminescence quantum yield is 0.37.

With `CCOC(=O)/N=c1/oc2cc(OC)ccc2cc1C#N` as the compound, how does the photoluminescence quantum yield (in ClCCl) read?
Its photoluminescence quantum yield is 0.0065.

For `CCOC(=O)/C=C/C1=C(c2ccc(C)cc2)C2=Nc3c(-c4ccc(C)cc4)cc(-c4ccc(C)cc4)n3[B-](F)(F)[N+]2=C1c1ccc(C)cc1`, which photoluminescence quantum yield (in ClC(Cl)Cl) is on record?
The photoluminescence quantum yield was 0.24.

With `CC(C)[Si](C#Cc1cc2c3c(c1)c(=C1c4ccccc4Sc4ccccc41)c1cc(C#C[Si](C(C)C)(C(C)C)C(C)C)cc4c1N3c1c(cc(C#C[Si](C(C)C)(C(C)C)C(C)C)cc1c4=C1c3ccccc3Sc3ccccc31)c2=C1c2ccccc2Sc2ccccc21)(C(C)C)C(C)C` as the compound, how does the photoluminescence quantum yield (in ClCCl) read?
The photoluminescence quantum yield was 0.46.

With `COc1ccc(OC)c(C(C)=O)c1` as the compound, how does the photoluminescence quantum yield (in CO) read?
The photoluminescence quantum yield was 0.1.

With `c1cc2ccc3ccc(-c4ccc(-c5nnc(-c6ccc(-c7nnc(-c8ccc(-c9ccc%10ccc%11cccc%12ccc9c%10c%11%12)s8)o7)cc6)o5)s4)c4ccc(c1)c2c34` as the compound, how does the photoluminescence quantum yield (in ClC(Cl)Cl) read?
The photoluminescence quantum yield was 0.06.
